Measured values: patent US20230373939A1 (VERTEX PHARMACEUTICALS INCORPORATED, priority 2020, published 2023)
Where two headings read alike, the source gives them in different places.

Target: T1, F508del in NIH 3T3 cells (Homo sapiens, UniProt P13569, DEL508-508)
T1 construct: expressed in transfected cells
Test: 3T3 assay: membrane potential optical assay for F508del correction
Assay type: cell-based
Conditions: for EC50: read-out: 3T3 EC50
Source text: 1. Membrane Potential Optical Methods for Assaying F508del Modulation Properties of Compounds
The assay utilizes fluorescent voltage sensing dyes to measure changes in membrane potential using a fluorescent plate reader (e.g., FLTPR III, Molecular Devices, Inc.) as a readout for increase in functional F508del in NIH 3T3 cells. The driving force for the response is the creation of a chloride ion gradient in conjunction with channel activation by a single liquid addition step after the cells have previously been treated with compounds and subsequently loaded with a voltage sensing dye.
2. Identification of Corrector Compounds
To identify correctors of F508del, a single-addition HTS assay format was developed. This HTS assay utilizes fluorescent voltage sensing dyes to measure changes in membrane potential on the FLIPR III as a measurement for increase in gating (conductance) of F508del in F508del NUT 3T3 cells. The F508del NUT 3T3 cell cultures were incubated with the corrector compounds at a range of concentrations for 18-24 hours at 37° C., and subsequently loaded with a redistribution dye. The driving force for the response is a Cl^− ion gradient in conjunction with channel activation with forskolin in a single liquid addition step using a fluorescent plate reader such as FLIPR III.
Bath Solution #1: (in mM) NaCl 160, KCl 4.5, CaCl2 2, MgCl2 1, HEPES 10, pH 7.4 with NaOH.
Chloride-free bath solution: Chloride salts in Bath Solution #1 (above) are substituted with gluconate salts.
NIH3T3 mouse fibroblasts stably expressing F508del were used for optical measurements of membrane potential. The cells were maintained at 37° C. in 5% CO2 and 90% humidity in Dulbecco's modified Eagle's medium supplemented with 2 mM glutamine, 10% fetal bovine serum, 1×NEAA, b-ME, 1×pen/strep, and 25 mM HEPES in 175 cm^2 culture flasks. For all optical assays, the cells were seeded at ˜20,000/well in 384-well Matrigel-coated plates. For the correction assays, the cells were cultured at 37° C. with and without compounds for 16-24 hours.

[1] = NIH3T3, NIH 3T3 cells, F508del, read-out: 3T3 Max Activity (%)
[2] = NIH3T3, read-out: 3T3 Max Activity (%)

T1 sequence (P13569 with tags, fused parts or gaps DEL508-508): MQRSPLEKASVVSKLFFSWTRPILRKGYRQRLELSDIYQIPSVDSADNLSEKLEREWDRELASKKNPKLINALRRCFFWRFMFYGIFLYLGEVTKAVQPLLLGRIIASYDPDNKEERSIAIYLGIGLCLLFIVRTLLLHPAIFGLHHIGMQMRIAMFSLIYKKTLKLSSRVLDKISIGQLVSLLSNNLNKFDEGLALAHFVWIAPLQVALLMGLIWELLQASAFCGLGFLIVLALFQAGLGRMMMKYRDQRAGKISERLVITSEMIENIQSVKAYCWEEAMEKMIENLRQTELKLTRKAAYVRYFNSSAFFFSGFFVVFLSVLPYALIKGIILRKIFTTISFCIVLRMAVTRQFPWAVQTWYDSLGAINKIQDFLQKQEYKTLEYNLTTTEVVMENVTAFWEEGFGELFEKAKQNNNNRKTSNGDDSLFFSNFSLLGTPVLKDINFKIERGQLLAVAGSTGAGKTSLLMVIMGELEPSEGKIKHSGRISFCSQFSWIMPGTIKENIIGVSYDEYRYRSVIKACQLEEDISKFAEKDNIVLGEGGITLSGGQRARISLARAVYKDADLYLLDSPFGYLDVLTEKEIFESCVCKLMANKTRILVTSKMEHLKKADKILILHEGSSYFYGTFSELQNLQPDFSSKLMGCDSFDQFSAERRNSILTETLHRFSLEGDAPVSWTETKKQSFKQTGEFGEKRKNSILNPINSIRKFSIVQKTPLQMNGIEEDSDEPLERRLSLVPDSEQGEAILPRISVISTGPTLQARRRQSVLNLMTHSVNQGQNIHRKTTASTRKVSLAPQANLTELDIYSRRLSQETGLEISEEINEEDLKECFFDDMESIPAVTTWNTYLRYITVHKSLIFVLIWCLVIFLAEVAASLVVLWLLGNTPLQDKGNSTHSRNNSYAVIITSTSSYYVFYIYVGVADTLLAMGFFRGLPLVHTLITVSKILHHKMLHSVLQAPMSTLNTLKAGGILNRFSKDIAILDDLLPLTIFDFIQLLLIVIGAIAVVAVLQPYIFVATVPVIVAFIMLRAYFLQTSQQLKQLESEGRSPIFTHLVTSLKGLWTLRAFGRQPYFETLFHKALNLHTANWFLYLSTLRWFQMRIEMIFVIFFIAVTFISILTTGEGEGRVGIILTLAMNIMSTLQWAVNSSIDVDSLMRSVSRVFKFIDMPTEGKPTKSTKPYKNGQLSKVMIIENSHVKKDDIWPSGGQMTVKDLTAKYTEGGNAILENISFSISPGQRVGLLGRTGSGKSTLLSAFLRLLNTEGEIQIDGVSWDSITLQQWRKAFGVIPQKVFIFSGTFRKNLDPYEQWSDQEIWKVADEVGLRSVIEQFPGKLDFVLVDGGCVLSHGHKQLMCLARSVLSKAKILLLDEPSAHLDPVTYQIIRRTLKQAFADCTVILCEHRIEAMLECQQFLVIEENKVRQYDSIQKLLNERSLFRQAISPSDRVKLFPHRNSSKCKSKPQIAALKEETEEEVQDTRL

SMILES | Emax [1] [%] | EC50 (NIH 3T3 cells, F508del) [µM] | Emax [2] [%]
Cc1nc(NS(=O)(=O)c2ccccc2)sc1-c1csc(Nc2ncccn2)n1 [Compound 44, N-[4-methyl-5-[2-(pyrimidin-2-ylamino)thiazol-4-yl]thiazol-2-yl]benzenesulfonamide] | < 30 |  | 
O=S(=O)(Nc1ncc(Cc2ccccc2)s1)c1ccccc1 [Compound 32, N-[5-benzyl-thiazol-2-yl]benzenesulfonamide] | 30 to 60 |  | 
Cc1cccc(C)c1-c1cnc(Oc2ccccc2)c(NS(=O)(=O)c2ccccc2)n1 [Compound 121, N-[6-(2,6-dimethylphenyl)-3-phenoxy-pyrazin-2-yl]benzenesulfonamide] | < 30 |  | 
CC(C)(C)NC(=O)c1sc(NS(=O)(=O)c2ccccc2)nc1-c1ccccc1 [Compound 36, 2-(benzenesulfonamido)-N-tert-butyl-4-phenyl-thiazole-5-carboxamide] | < 30 |  | 
O=C(NCc1ccccc1)c1sc(NS(=O)(=O)c2ccccc2)nc1-c1ccccc1 [Compound 14, 2-(benzenesulfonamido)-N-benzyl-4-phenyl-thiazole-5-carboxamide] | 30 to 60 | 3 to 30 | 
Cc1cccc(C)c1-c1cnc(N2CCN(C)CC2)c(NS(=O)(=O)c2ccccc2)n1 [Compound 122, N-[6-(2,6-dimethylphenyl)-3-(4-methylpiperazin-1-yl)pyrazin-2-yl]benzenesulfonamide] | < 30 |  | 
CC1CN(c2nc(NS(=O)(=O)c3ccccc3)cc(Oc3ccccc3)n2)C(C)(C)C1 (centres unmarked) [Compound 129, N-[6-phenoxy-2-(2,2,4-trimethylpyrrolidin-1-yl)pyrimidin-4-yl]benzenesulfonamide] | < 30 |  | 
Cc1cc(C)c(-n2nc(NS(=O)(=O)c3ccccc3)cc2C(C)(C)C)c(C)c1 [Compound 53, N-[5-tert-butyl-1-(2,4,6-trimethylphenyl)pyrazol-3-yl]benzenesulfonamide] | < 30 |  | 
Cc1cc(C)c(-n2nc(NS(=O)(=O)c3ccccc3)cc2-c2ccc(Oc3ccccc3)cc2)c(C)c1 [Compound 49, N-[5-(4-phenoxyphenyl)-1-(2,4,6-trimethylphenyl)pyrazol-3-yl]benzenesulfonamide] |  | < 1 | 30 to 60
Nc1cccc(S(=O)(=O)Nc2nc(Oc3ccccc3)nc(-c3ccccc3)n2)c1 [Compound 126, 3-amino-N-(4-phenoxy-6-phenyl-1,3,5-triazin-2-yl)benzenesulfonamide] | 30 to 60 | 3 to 30 | 
O=S(=O)(Nc1nn(-c2ccccc2)cc1C1CCCCC1)c1ccccc1 [Compound 84, N-(4-cyclohexyl-1-phenyl-pyrazol-3-yl)benzenesulfonamide] | < 30 |  | 
Cc1cccc(-c2nc(NS(=O)(=O)c3ccccc3)cc(C)c2C)c1C [Compound 158] | > 60 | 3 to 30 | 
Cc1sc(NS(=O)(=O)c2ccccc2)nc1-c1ccncc1 [Compound 43, N-[5-methyl-4-(4-pyridyl)thiazol-2-yl]benzenesulfonamide] | < 30 |  | 
Cc1ccc(-c2ccc(NS(=O)(=O)c3ccccc3)nc2-c2ccc(C)cc2)cc1 [Compound 144, N-[5,6-bis(p-tolyl)-2-pyridyl]benzenesulfonamide] | > 60 | 1 to 3 | 
O=S(=O)(Nc1cc(OCc2ccccc2)nc(-c2ccccc2)n1)c1ccccc1 [Compound 132, N-(6-benzyloxy-2-phenyl-pyrimidin-4-yl)benzenesulfonamide] | 30 to 60 | 1 to 3 | 
Cc1ccc(-c2nc(NS(=O)(=O)c3ccccc3)oc2-c2ccc(C)cc2)cc1 [Compound 3, N-[4,5-bis(p-tolyl)oxazol-2-yl]benzenesulfonamide] |  | 1 to 3 | > 60
O=S(=O)(Nc1nn(-c2cccc(Cl)c2)cc1C1CCCCC1)c1ccccc1 [Compound 83, N-[1-(3-chlorophenyl)-4-cyclohexyl-pyrazol-3-yl]benzenesulfonamide] | < 30 |  | 
CC(C)(C)c1nc(NS(=O)(=O)c2ccccc2)sc1C#N [Compound 45, N-(4-tert-butyl-5-cyano-thiazol-2-yl)benzenesulfonamide] | < 30 |  | 
CCCN(C)C(=O)c1sc(NS(=O)(=O)c2ccccc2)nc1-c1ccccc1 [Compound 38, 2-(benzenesulfonamido)-N-methyl-4-phenyl-N-propyl-thiazole-5-carboxamide] | < 30 |  | 
CCOC(=O)c1sc(NS(=O)(=O)c2ccccc2)nc1-c1ccccc1 [Compound 24, ethyl 2-(benzenesulfonamido)-4-phenyl-thiazole-5-carboxylate] | > 60 | 3 to 30 | 

Further lines, with some results ahead:

Emax [1] [%] | EC50 (NIH 3T3 cells, F508del) [µM] | SMILES | Emax [2] [%]
< 30 |  | CCCNC(=O)c1sc(NS(=O)(=O)c2ccccc2)nc1-c1ccccc1 [Compound 39, 2-(benzenesulfonamido)-4-phenyl-N-propyl-thiazole-5-carboxamide] | 
> 60 | 3 to 30 | Cc1cc(NS(=O)(=O)c2ccccc2)nc(-c2ccc(C)cc2C)c1 [Compound 152] | 
> 60 | 1 to 3 | Cc1ccc(NS(=O)(=O)c2ccccc2)nc1-c1cccc(C)c1C [Compound 137, N-[6-(2,3-Dimethylphenyl)-5-methyl-2-pyridyl]benzenesulfonamide] | 
< 30 |  | O=S(=O)(Nc1ccnn1C1CCCCC1)c1ccccc1 [Compound 79, N-(2-cyclohexylpyrazol-3-yl)benzenesulfonamide] | 
> 60 | 1 to 3 | O=S(=O)(Nc1cc(-c2ccccc2)nc(-c2ccccc2)n1)c1ccccc1 [Compound 131, N-(2,6-diphenylpyrimidin-4-yl)benzenesulfonamide] | 
< 30 |  | CC(C)Cc1cn(-c2cccc(Cl)c2)nc1NS(=O)(=O)c1ccccc1 [Compound 81, N-[1-(3-chlorophenyl)-4-isobutyl-pyrazol-3-yl]benzenesulfonamide] | 
30 to 60 | 3 to 30 | COC(=O)Cc1nc(NS(=O)(=O)c2ccccc2)sc1-c1ccccc1 [Compound 40, methyl 2-[2-(benzenesulfonamido)-5-phenyl-thiazol-4-yl]acetate] | 
30 to 60 | 3 to 30 | CC(C)Oc1nc(NS(=O)(=O)c2ccccc2)nc(-c2ccccc2)n1 [Compound 124, N-(4-isopropoxy-6-phenyl-1,3,5-triazin-2-yl)benzenesulfonamide] | 
30 to 60 | < 1 | Cc1ccc(-c2cc(NS(=O)(=O)c3ccccc3)nn2-c2c(C)cc(C)cc2C)cc1 [Compound 61, N-[5-(p-tolyl)-1-(2,4,6-trimethylphenyl)pyrazol-3-yl]benzenesulfonamide] | 
< 30 |  | O=C(Nc1ccccc1)c1sc(NS(=O)(=O)c2ccccc2)nc1-c1ccccc1 [Compound 33, N,4-diphenyl-2-(phenylsulfonamido)thiazole-5-carboxamide] | 
> 60 | 1 to 3 | Cc1ccc(-c2cc(NS(=O)(=O)c3ccccc3)nc(-c3ccc(C)cc3)c2)cc1 [Compound 143, N-[4,6-bis(p-tolyl)-2-pyridyl]benzenesulfonamide] | 
> 60 | < 1 | CCCc1sc(NS(=O)(=O)c2ccccc2)nc1-c1cc(C)ccc1C [Compound 18, N-[4-(2,5-dimethylphenyl)-5-propyl-thiazol-2-yl]benzenesulfonamide] | 
> 60 | 1 to 3 | COc1ccccc1-c1cc(NS(=O)(=O)c2ccccc2)nn1-c1c(C)cc(C)cc1C [Compound 60, N-[5-(2-methoxyphenyl)-1-(2,4,6-trimethylphenyl)pyrazol-3-yl]benzenesulfonamide] | 
30 to 60 | < 1 | Cc1cc(C)c(-n2cc(-c3ccccc3)c(NS(=O)(=O)c3ccccc3)n2)c(C)c1 [Compound 96, N-[4-phenyl-1-(2,4,6-trimethylphenyl)pyrazol-3-yl]benzenesulfonamide] | 
30 to 60 | 1 to 3 | COc1cccc(-c2cn(-c3cccc(Cl)c3)nc2NS(=O)(=O)c2ccccc2)c1 [Compound 91, N-[1-(3-chlorophenyl)-4-(3-methoxyphenyl)pyrazol-3-yl]benzenesulfonamide] | 
30 to 60 | < 1 | COc1ccc(-c2cc(NS(=O)(=O)c3ccccc3)nn2-c2c(C)cc(C)cc2C)cc1 [Compound 59, N-[5-(4-methoxyphenyl)-1-(2,4,6-trimethylphenyl)pyrazol-3-yl]benzenesulfonamide] | 
> 60 | 1 to 3 | O=S(=O)(Nc1ncc(-c2ccccc2)nc1-c1ccccc1)c1ccccc1 [Compound 118, N-(3,5-diphenylpyrazin-2-yl)benzenesulfonamide] | 
> 60 | < 1 | O=S(=O)(Nc1cc(-c2ccccc2)cc(Oc2ccccc2)n1)c1ccccc1 [Compound 142, N-(6-phenoxy-4-phenyl-2-pyridyl)benzenesulfonamide] | 
> 60 | 3 to 30 | Cc1ccc(-c2nc(NS(=O)(=O)c3ccccc3)cc(C)c2C)c(C)c1 [Compound 156] | 
